Data taken from PMC12006790 (Synthetic Biology, 2025).

Key:
CelEdx16 = biological target: T1, CelEdx16 (Clostridiaceae bacterium AN-C16-KBRB, UniProt E0A3Q5); assay: p-nitrophenol release, […] nm; assay type: biochemical; conditions: 2 mM substrate, PBS pH 7.4, 40 °C, 12 h
T1 sequence (E0A3Q5 1-367): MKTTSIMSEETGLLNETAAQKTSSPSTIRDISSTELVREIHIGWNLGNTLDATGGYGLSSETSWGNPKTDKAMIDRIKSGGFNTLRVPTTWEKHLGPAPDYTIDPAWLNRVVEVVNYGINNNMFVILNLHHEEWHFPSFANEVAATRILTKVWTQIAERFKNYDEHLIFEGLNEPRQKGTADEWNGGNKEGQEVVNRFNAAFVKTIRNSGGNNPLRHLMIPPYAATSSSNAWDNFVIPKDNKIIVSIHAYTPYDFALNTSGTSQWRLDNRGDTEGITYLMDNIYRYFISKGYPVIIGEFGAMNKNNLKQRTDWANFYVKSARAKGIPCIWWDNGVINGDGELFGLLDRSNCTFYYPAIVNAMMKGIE

HjCel7A = biological target: T2, HjCel7A (Trichoderma reesei, UniProt P62694); assay: p-nitrophenol release, […] nm; assay type: biochemical; conditions: 2 mM substrate, PBS pH 7.4, 40 °C, 12 h
T2 sequence (P62694 18-513): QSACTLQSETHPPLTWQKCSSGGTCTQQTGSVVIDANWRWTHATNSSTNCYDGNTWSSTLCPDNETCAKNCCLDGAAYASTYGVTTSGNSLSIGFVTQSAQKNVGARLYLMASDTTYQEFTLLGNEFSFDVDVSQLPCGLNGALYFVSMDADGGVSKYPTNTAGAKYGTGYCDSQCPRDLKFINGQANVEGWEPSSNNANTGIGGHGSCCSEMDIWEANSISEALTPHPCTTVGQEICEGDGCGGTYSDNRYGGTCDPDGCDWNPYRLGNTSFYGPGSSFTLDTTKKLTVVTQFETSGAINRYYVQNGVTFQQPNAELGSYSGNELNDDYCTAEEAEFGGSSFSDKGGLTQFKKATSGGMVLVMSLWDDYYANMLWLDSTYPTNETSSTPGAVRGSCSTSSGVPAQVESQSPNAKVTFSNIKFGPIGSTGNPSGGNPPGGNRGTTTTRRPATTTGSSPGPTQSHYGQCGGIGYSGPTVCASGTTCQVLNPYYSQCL

O=[N+]([O-])c1ccc(O[C@@H]2O[C@H](CO)[C@@H](O[C@@H]3O[C@H](CO)[C@@H](O)[C@H](O)[C@H]3O)[C@H](O)[C@H]2O)cc1 [p-nitrophenyl β-D-cellobioside]
p-nitrophenol release, 405 nm; cell-free CB-biosensor (CelEdx16): pNP assay detected significant signals for CelEdx16 and HjCel7A (CBHI) | p-nitrophenol release, 405 nm; cell-free CB-biosensor (HjCel7A): pNP assay detected significant signals for CelEdx16 and HjCel7A (CBHI)
